# Experimental data published in paper PMC3078945 (Clinical cancer research : an official journal of the …, 2011).
# Read-outs that look alike come from different tables or passages of the source.
# Legend:
# [1] = system: solid tumor cells; details: safingol alone; cited from earlier work
# [2] = system: xenograft; details: cited from earlier work
# [3] = molecular target: Protein Kinase C; details: PKC; cited from earlier work
# [4] = system: mice; details: mouse, in vivo; cited from earlier work
# [5] = system: patients; details: cited from earlier work
# [6] = system: patients with advanced solid tumors; details: for AST/ALT G2 (number of patients) / Fatigue G4 (number of patients) / Hyponatremia G2 (number of patients) / Hyponatremia G3 (number of patients) / Hyponatremia G4 (number of patients) / Lymphopenia G2 (number of patients) / Lymphopenia G3 (number of patients) / Lymphopenia G4 (number of patients) / Nausea/vomiting G2 (number of patients) / Nausea/vomiting G3 (number of patients): cycle 1
# [7] = cohort 1 (safingol 60, cisplatin 75 mg/m^2), N=4
# [8] = cohort 2 (safingol 120, cisplatin 75 mg/m^2), N=3
# [9] = cohort 3 (safingol 240, cisplatin 75 mg/m^2), N=3
# [10] = cohort 4 (safingol 240, cisplatin 60 mg/m^2), N=6
# [11] = cohort 5 (safingol 360, cisplatin 60 mg/m^2), N=3
# [12] = cohort 6 (safingol 480, cisplatin 60 mg/m^2), N=3
compound,measurement,setting,value
"CCCCCCCCCCCCCCC[C@H](O)[C@@H](N)CO [Safingol, (2S,3S)-2-amino-1,3-octadecanediol]",cell death mechanism,[1],induces cell death by autophagy
same,effect on antitumor activity of cisplatin in xenografts,[2],can increase the antitumor activity of cisplatin without increasing toxicity
same,Ki,[3],33 µM
same,hepatic toxicity in mice,[4],increases in ALT and histological changes consistent with hepatocyte autophagy
same,safingol-associated toxicity,[5]; phase I study with doxorubicin,a single episode of grade 1 hemolysis
same,hepatic toxicity,[5]; safingol doses not exceeding 120 mg/m^2 with doxorubicin,no hepatic toxicity was observed
same,dose-limiting toxicity,[5]; safingol up to 120 mg/m^2 every three weeks with doxorubicin,no dose-limiting toxicity observed
same,upper limit of the 95% posterior interval of DLT rate,[6]; MTD cohort,40%
same,DLT rate for the MTD cohort,"[6]; cohort 10, 1/6",17%
same,hemolysis,"[6]; current study, careful monitoring",no hemolysis was observed in any patient
same,AST/ALT G2 (number of patients),[6]; [7],0
same,Fatigue G4 (number of patients),[6]; [7],0
same,Hyponatremia G2 (number of patients),[6]; [7],0
same,Hyponatremia G3 (number of patients),[6]; [7],1
same,Hyponatremia G4 (number of patients),[6]; [7],0
same,Lymphopenia G2 (number of patients),[6]; [7],0
same,Lymphopenia G3 (number of patients),[6]; [7],1
same,Lymphopenia G4 (number of patients),[6]; [7],0
same,Nausea/vomiting G2 (number of patients),[6]; [7],0
same,Nausea/vomiting G3 (number of patients),[6]; [7],0
same,AST/ALT G2 (number of patients),[6]; [8],0
same,Fatigue G4 (number of patients),[6]; [8],0
same,Hyponatremia G2 (number of patients),[6]; [8],0
same,Hyponatremia G3 (number of patients),[6]; [8],0
same,Hyponatremia G4 (number of patients),[6]; [8],0
same,Lymphopenia G2 (number of patients),[6]; [8],0
same,Lymphopenia G3 (number of patients),[6]; [8],1
same,Lymphopenia G4 (number of patients),[6]; [8],0
same,Nausea/vomiting G2 (number of patients),[6]; [8],1
same,Nausea/vomiting G3 (number of patients),[6]; [8],0
same,AST/ALT G2 (number of patients),[6]; [9],0
same,Fatigue G4 (number of patients),[6]; [9],0
same,Hyponatremia G2 (number of patients),[6]; [9],0
same,Hyponatremia G3 (number of patients),[6]; [9],1
same,Hyponatremia G4 (number of patients),[6]; [9],0
same,Lymphopenia G2 (number of patients),[6]; [9],0
same,Lymphopenia G3 (number of patients),[6]; [9],0
same,Lymphopenia G4 (number of patients),[6]; [9],0
same,Nausea/vomiting G2 (number of patients),[6]; [9],3
same,Nausea/vomiting G3 (number of patients),[6]; [9],0
same,AST/ALT G2 (number of patients),[6]; [10],1
same,Fatigue G4 (number of patients),[6]; [10],0
same,Hyponatremia G2 (number of patients),[6]; [10],0
same,Hyponatremia G3 (number of patients),[6]; [10],0
same,Hyponatremia G4 (number of patients),[6]; [10],0
same,Lymphopenia G2 (number of patients),[6]; [10],0
same,Lymphopenia G3 (number of patients),[6]; [10],3
same,Lymphopenia G4 (number of patients),[6]; [10],0
same,Nausea/vomiting G2 (number of patients),[6]; [10],0
same,Nausea/vomiting G3 (number of patients),[6]; [10],0
same,AST/ALT G2 (number of patients),[6]; [11],1
same,Fatigue G4 (number of patients),[6]; [11],0
same,Hyponatremia G2 (number of patients),[6]; [11],0
same,Hyponatremia G3 (number of patients),[6]; [11],0
same,Hyponatremia G4 (number of patients),[6]; [11],0
same,Lymphopenia G2 (number of patients),[6]; [11],0
same,Lymphopenia G3 (number of patients),[6]; [11],1
same,Lymphopenia G4 (number of patients),[6]; [11],0
same,Nausea/vomiting G2 (number of patients),[6]; [11],0
same,Nausea/vomiting G3 (number of patients),[6]; [11],0
same,AST/ALT G2 (number of patients),[6]; [12],0
same,Fatigue G4 (number of patients),[6]; [12],0
same,Hyponatremia G2 (number of patients),[6]; [12],0
same,Hyponatremia G3 (number of patients),[6]; [12],0
same,Hyponatremia G4 (number of patients),[6]; [12],0
same,Lymphopenia G2 (number of patients),[6]; [12],0
same,Lymphopenia G3 (number of patients),[6]; [12],0
same,Lymphopenia G4 (number of patients),[6]; [12],0
same,Nausea/vomiting G2 (number of patients),[6]; [12],0
